What was measured:
[1] = system: Salmonella schottmuelleri (paratyphi B), Fougenc strain (Institut Pasteur); assay: Bacteriostatic activity in vitro (dilution method); format: cell-based; details: nutrient broth
[2] = system: Staphylococcus aureus,Smith strain; assay: Bacteriostatic activity in vitro (dilution method); format: cell-based; details: nutrient broth
Pseudomonas aeruginosa = assay: Bacteriostatic activity in vitro (dilution method); format: cell-based; details: nutrient broth
[3] = system: Neisseria catarrhalis (A 152, Institut Pasteur); assay: Bacteriostatic activity in vitro (dilution method); format: cell-based; details: nutrient broth
[4] = system: Streptococcus faecalis - ATCC 8043; assay: Bacteriostatic activity in vitro (dilution method); format: cell-based; details: nutrient broth
[5] = system: Streptococcus pyogenes haemolyticus, Dig 7 strain (Institut Pasteur); assay: Bacteriostatic activity in vitro (dilution method); format: cell-based; details: nutrient broth
[6] = system: Diplococcus pneumoniae, Til strain (Institut Pasteur); assay: Bacteriostatic activity in vitro (dilution method); format: cell-based; details: nutrient broth
[7] = system: Staphylococcus aureus,strain 209 P- ATCC 6538 P; assay: Bacteriostatic activity in vitro (dilution method); format: cell-based; details: nutrient broth
[8] = system: Sarcina lutea - ATCC 9341; assay: Bacteriostatic activity in vitro (dilution method); format: cell-based; details: nutrient broth
chickens = assay: Toxicity of medicated feed in chickens (non-toxic concentrations); format: in vivo; details: between 0.005% and 0.04% by weight in feed
Procedure: Anti-coccidial activity: the anti-coccidial activity was determined in chickens infested in particular with Eimeria tenella and Eimeria acervulina.
The anti-coccidial activity of 37,454 RP (sodium salt), incorporated into chicken feed, manifests itself at non-toxic concentrations of between 0.005% and 0.04% by weight of the sodium salt in the feed.

Proteus vulgaris = assay: Bacteriostatic activity in vitro (dilution method); format: cell-based; details: nutrient broth
[9] = system: Mycobacterium species - ATCC 607; assay: Bacteriostatic activity in vitro (dilution method); format: cell-based; details: nutrient broth
[10] = system: Bacillus subtilis - ATCC 6633; assay: Bacteriostatic activity in vitro (dilution method); format: cell-based; details: nutrient broth
mice = assay: Acute toxicity in mice; format: in vivo; details: orally, single dose
Procedure: Acute toxicity: in mice, the 50% lethal dose (LD50) is 90 mg/kg given orally in a single dose.

[11] = system: Shigella dysenteriae, Shiga L (Institut Pasteur); format: cell-based; details: nutrient broth
[12] = system: Bacillus cereus - ATCC 6630; assay: Bacteriostatic activity in vitro (dilution method); format: cell-based; details: nutrient broth

`CO[C@H]1CC[C@H](O[C@H]2[C@H](C)[C@@H]([C@H]3CC[C@H]([C@@H]4CC[C@H]([C@@]5(C)OC6(O[C@H](C[C@@H]7O[C@](O)([C@@H](O)C(=O)[O-])[C@@H](C)[C@H](OC)[C@@]7(C)OC)C[C@@H](OC)[C@H]6C)[C@H](C)[C@H]5OC)O4)O3)O[C@](C)(O)[C@@H]2C)O[C@@H]1C.[Na+]` (stereo partly shown) [37,454 RP (sodium salt)] was tested, and the Minimum bacteriostatic concentration [1] was > 50 μg/cc, the Minimum bacteriostatic concentration [2] was 0.8 μg/cc and the Minimum bacteriostatic concentration (Pseudomonas aeruginosa) was > 15 μg/cc. The Minimum bacteriostatic concentration [3] was > 20 μg/cc, the Minimum bacteriostatic concentration [4] was 0.3 μg/cc and the Minimum bacteriostatic concentration [5] was 0.6 μg/cc. The Minimum bacteriostatic concentration [6] was 0.1 μg/cc, the Minimum bacteriostatic concentration [7] was 0.6 μg/cc and the Minimum bacteriostatic concentration [8] was 0.9 μg/cc. The “Toxicity at active feed concentrations” value (chickens) was “non-toxic”, the Minimum bacteriostatic concentration (Proteus vulgaris) was > 50 μg/cc and the Minimum bacteriostatic concentration [9] was 10 μg/cc. The Minimum bacteriostatic concentration [10] was 0.8 μg/cc, the “50% lethal dose (LD50)” value (mice) was 90 mg/kg and the Minimum bacteriostatic concentration [11] was > 50 μg/cc. The Minimum bacteriostatic concentration [12] was 0.3 μg/cc.
